Results published in BindingDB's records for doi:10.1111/j.1476-5381.1995.tb15071.x (Vrije Universiteit, 1995).

Biological target: Sodium-dependent serotonin transporter (Cavia porcellus, UniProt O35899)
Sequence (O35899 whole entry): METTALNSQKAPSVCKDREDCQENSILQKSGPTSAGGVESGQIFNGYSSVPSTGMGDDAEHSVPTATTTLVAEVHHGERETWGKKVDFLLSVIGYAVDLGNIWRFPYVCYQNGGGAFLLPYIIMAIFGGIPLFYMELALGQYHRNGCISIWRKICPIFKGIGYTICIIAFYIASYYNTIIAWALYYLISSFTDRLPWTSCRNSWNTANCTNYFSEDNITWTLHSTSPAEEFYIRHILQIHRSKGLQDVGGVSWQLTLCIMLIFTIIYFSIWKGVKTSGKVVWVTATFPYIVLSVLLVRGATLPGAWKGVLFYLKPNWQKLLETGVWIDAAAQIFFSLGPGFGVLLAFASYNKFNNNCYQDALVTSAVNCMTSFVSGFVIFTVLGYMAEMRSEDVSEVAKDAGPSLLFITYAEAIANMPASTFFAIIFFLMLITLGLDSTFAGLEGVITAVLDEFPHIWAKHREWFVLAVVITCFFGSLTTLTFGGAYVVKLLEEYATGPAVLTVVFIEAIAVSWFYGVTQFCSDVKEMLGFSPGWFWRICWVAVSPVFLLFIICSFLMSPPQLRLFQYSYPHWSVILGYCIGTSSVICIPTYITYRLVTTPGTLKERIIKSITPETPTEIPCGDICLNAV

**Q.** For `S=C(NC1CCCCC1)N1CCC(c2cnc[nH]2)CC1`, which Ki is on record?
**A.** > 10 µM
